# In patent US20230301300A1, “HERBICIDAL COMPOSITIONS” (SYNGENTA CROP PROTECTION AG, priority 2020, published 2023):
# What was measured:
# Test in all cases: B2 Post-Emergence Efficacy - Test 2
# Format in all cases: in vivo
# [1] = tested on: Alopecurus myosuroides (ALOMY); conditions: 15 days after application, 0-100 scale
# How it was run: (§1)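 Post-emergence spray, 12-day-old potted plants; IF50 formulation in water + Genapol X080 0.2% v/v. Glasshouse 24/18 or 20/16 °C, 16 h light, 65% RH, watered twice daily. Rating at 15 DAA, 0 = no damage, 100 = total kill.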
# Beta vulgaris (BEAVA) = conditions: 15 days after application, 0-100 scale
# How it was run: as §1
# Bidens pilosa (BIDPI) = conditions: 15 days after application, 0-100 scale
# How it was run: as §1
# Brassica napus (BRSNN) = conditions: 15 days after application, 0-100 scale
# How it was run: as §1
# [2] = tested on: Chenopodium album (CHEAL); conditions: 15 days after application, 0-100 scale
# How it was run: as §1
# [3] = tested on: Digitaria sanguinalis (DIGSA); conditions: 15 days after application, 0=no damage, 100=total kill
# How it was run: as §1
# Eleisine indica (ELEIN) = conditions: 15 days after application, 0=no damage, 100=total kill
# How it was run: as §1
# Galium aparine (GALAP) = conditions: 15 days after application, 0-100 scale
# How it was run: as §1
# Lolium perenne (LOLPE) = conditions: 15 days after application, 0-100 scale
# How it was run: as §1
# [4] = tested on: Panicum miliaceum (PANMI); conditions: 15 days after application, 0=no damage, 100=total kill
# How it was run: as §1
# Poa annua (POAAN) = conditions: 15 days after application, 0-100 scale
# How it was run: as §1
# Sida spinosa (SIDSP) = conditions: 15 days after application, 0-100 scale
# How it was run: as §1
# Sorghum bicolour (SORVU) = conditions: 15 days after application, 0=no damage, 100=total kill
# How it was run: as §1
# Stellaria media (STEME) = conditions: 15 days after application, 0-100 scale
# How it was run: as §1
# [5] = tested on: Triticum aestivum (TRZAW); conditions: 15 days after application, 0-100 scale
# How it was run: as §1
# Veronica persica (VERPE) = conditions: 15 days after application, 0-100 scale
# How it was run: as §1
# [6] = tested on: Xanthium strumarium (XANST); conditions: 15 days after application, 0-100 scale
# How it was run: as §1
# Zea mays (ZEAMX) = conditions: 15 days after application; for Herbicidal activity ZEAMX: 0-100 scale; for Herbicidal activity on a 0-100 scale, ZEAMX: 0=no damage, 100=total kill
# How it was run: as §1
compound,measurement,setting,value
"Cc1nn(C)c(=O)c(-c2c(F)ccc(Cl)c2CCc2ccc(F)cc2)c1O [Compound 1.048, 4-[3-chloro-6-fluoro-2-[2-(4-fluorophenyl)ethyl]phenyl]-5-hydroxy-2,6-dimethyl-pyridazin-3-one]",Herbicidal activity ALOMY,[1]; 15 g/Ha,20
same,Herbicidal activity ALOMY,[1]; 30 g/Ha,30
same,Herbicidal activity ALOMY,[1]; 60 g/Ha,70
same,Herbicidal activity ALOMY,[1]; 125 g/Ha,80
same,Herbicidal activity ALOMY,[1]; 250 g/Ha,80
same,Herbicidal activity ALOMY,[1]; 500 g/Ha,90
same,Herbicidal activity BEAVA,Beta vulgaris (BEAVA); 15 g/Ha,70
same,Herbicidal activity BEAVA,Beta vulgaris (BEAVA); 30 g/Ha,80
same,Herbicidal activity BEAVA,Beta vulgaris (BEAVA); 60 g/Ha,80
same,Herbicidal activity BEAVA,Beta vulgaris (BEAVA); 125 g/Ha,90
same,Herbicidal activity BEAVA,Beta vulgaris (BEAVA); 250 g/Ha,90
same,Herbicidal activity BEAVA,Beta vulgaris (BEAVA); 500 g/Ha,90
same,Herbicidal activity BIDPI,Bidens pilosa (BIDPI); 15 g/Ha,70
same,Herbicidal activity BIDPI,Bidens pilosa (BIDPI); 30 g/Ha,70
same,Herbicidal activity BIDPI,Bidens pilosa (BIDPI); 60 g/Ha,70
same,Herbicidal activity BIDPI,Bidens pilosa (BIDPI); 125 g/Ha,70
same,Herbicidal activity BIDPI,Bidens pilosa (BIDPI); 250 g/Ha,100
same,Herbicidal activity BIDPI,Bidens pilosa (BIDPI); 500 g/Ha,100
same,Herbicidal activity BRSNN,Brassica napus (BRSNN); 15 g/Ha,90
same,Herbicidal activity BRSNN,Brassica napus (BRSNN); 30 g/Ha,90
same,Herbicidal activity BRSNN,Brassica napus (BRSNN); 60 g/Ha,90
same,Herbicidal activity BRSNN,Brassica napus (BRSNN); 125 g/Ha,90
same,Herbicidal activity BRSNN,Brassica napus (BRSNN); 250 g/Ha,90
same,Herbicidal activity BRSNN,Brassica napus (BRSNN); 500 g/Ha,90
same,Herbicidal activity CHEAL,[2]; 125 g/Ha,70
same,Herbicidal activity CHEAL,[2]; 250 g/Ha,90
same,Herbicidal activity CHEAL,[2]; 500 g/Ha,100
same,"Herbicidal activity on a 0-100 scale, DIGSA",[3]; 15 g/Ha,0
same,"Herbicidal activity on a 0-100 scale, DIGSA",[3]; 30 g/Ha,10
same,"Herbicidal activity on a 0-100 scale, DIGSA",[3]; 60 g/Ha,20
same,"Herbicidal activity on a 0-100 scale, DIGSA",[3]; 125 g/Ha,20
same,"Herbicidal activity on a 0-100 scale, DIGSA",[3]; 250 g/Ha,50
same,"Herbicidal activity on a 0-100 scale, DIGSA",[3]; 500 g/Ha,70
same,"Herbicidal activity on a 0-100 scale, ELEIN",Eleisine indica (ELEIN); 15 g/Ha,0
same,"Herbicidal activity on a 0-100 scale, ELEIN",Eleisine indica (ELEIN); 30 g/Ha,50
same,"Herbicidal activity on a 0-100 scale, ELEIN",Eleisine indica (ELEIN); 60 g/Ha,60
same,"Herbicidal activity on a 0-100 scale, ELEIN",Eleisine indica (ELEIN); 125 g/Ha,60
same,"Herbicidal activity on a 0-100 scale, ELEIN",Eleisine indica (ELEIN); 250 g/Ha,80
same,"Herbicidal activity on a 0-100 scale, ELEIN",Eleisine indica (ELEIN); 500 g/Ha,80
same,Herbicidal activity GALAP,Galium aparine (GALAP); 15 g/Ha,20
same,Herbicidal activity GALAP,Galium aparine (GALAP); 30 g/Ha,30
same,Herbicidal activity GALAP,Galium aparine (GALAP); 60 g/Ha,50
same,Herbicidal activity GALAP,Galium aparine (GALAP); 125 g/Ha,60
same,Herbicidal activity GALAP,Galium aparine (GALAP); 250 g/Ha,60
same,Herbicidal activity GALAP,Galium aparine (GALAP); 500 g/Ha,80
same,Herbicidal activity LOLPE,Lolium perenne (LOLPE); 15 g/Ha,20
same,Herbicidal activity LOLPE,Lolium perenne (LOLPE); 30 g/Ha,40
same,Herbicidal activity LOLPE,Lolium perenne (LOLPE); 60 g/Ha,90
same,Herbicidal activity LOLPE,Lolium perenne (LOLPE); 125 g/Ha,90
same,Herbicidal activity LOLPE,Lolium perenne (LOLPE); 250 g/Ha,90
same,Herbicidal activity LOLPE,Lolium perenne (LOLPE); 500 g/Ha,90
same,"Herbicidal activity on a 0-100 scale, PANMI",[4]; 15 g/Ha,0
same,"Herbicidal activity on a 0-100 scale, PANMI",[4]; 30 g/Ha,20
same,"Herbicidal activity on a 0-100 scale, PANMI",[4]; 60 g/Ha,30
same,"Herbicidal activity on a 0-100 scale, PANMI",[4]; 125 g/Ha,80
same,"Herbicidal activity on a 0-100 scale, PANMI",[4]; 250 g/Ha,100
same,"Herbicidal activity on a 0-100 scale, PANMI",[4]; 500 g/Ha,100
same,Herbicidal activity POAAN,Poa annua (POAAN); 15 g/Ha,30
same,Herbicidal activity POAAN,Poa annua (POAAN); 30 g/Ha,30
same,Herbicidal activity POAAN,Poa annua (POAAN); 60 g/Ha,80
same,Herbicidal activity POAAN,Poa annua (POAAN); 125 g/Ha,80
same,Herbicidal activity POAAN,Poa annua (POAAN); 250 g/Ha,90
same,Herbicidal activity POAAN,Poa annua (POAAN); 500 g/Ha,90
same,Herbicidal activity SIDSP,Sida spinosa (SIDSP); 15 g/Ha,80
same,Herbicidal activity SIDSP,Sida spinosa (SIDSP); 30 g/Ha,80
same,Herbicidal activity SIDSP,Sida spinosa (SIDSP); 60 g/Ha,80
same,Herbicidal activity SIDSP,Sida spinosa (SIDSP); 125 g/Ha,90
same,Herbicidal activity SIDSP,Sida spinosa (SIDSP); 250 g/Ha,90
same,Herbicidal activity SIDSP,Sida spinosa (SIDSP); 500 g/Ha,90
same,"Herbicidal activity on a 0-100 scale, SORVU",Sorghum bicolour (SORVU); 15 g/Ha,0
same,"Herbicidal activity on a 0-100 scale, SORVU",Sorghum bicolour (SORVU); 30 g/Ha,30
same,"Herbicidal activity on a 0-100 scale, SORVU",Sorghum bicolour (SORVU); 60 g/Ha,70
same,"Herbicidal activity on a 0-100 scale, SORVU",Sorghum bicolour (SORVU); 125 g/Ha,70
same,"Herbicidal activity on a 0-100 scale, SORVU",Sorghum bicolour (SORVU); 250 g/Ha,80
same,"Herbicidal activity on a 0-100 scale, SORVU",Sorghum bicolour (SORVU); 500 g/Ha,90
same,Herbicidal activity STEME,Stellaria media (STEME); 15 g/Ha,90
same,Herbicidal activity STEME,Stellaria media (STEME); 30 g/Ha,90
same,Herbicidal activity STEME,Stellaria media (STEME); 60 g/Ha,90
same,Herbicidal activity STEME,Stellaria media (STEME); 125 g/Ha,100
same,Herbicidal activity STEME,Stellaria media (STEME); 250 g/Ha,100
same,Herbicidal activity STEME,Stellaria media (STEME); 500 g/Ha,100
same,Herbicidal activity TRZAW,[5]; 15 g/Ha,0
same,Herbicidal activity TRZAW,[5]; 30 g/Ha,10
same,Herbicidal activity TRZAW,[5]; 60 g/Ha,20
same,Herbicidal activity TRZAW,[5]; 125 g/Ha,20
same,Herbicidal activity TRZAW,[5]; 250 g/Ha,50
same,Herbicidal activity TRZAW,[5]; 500 g/Ha,80
same,Herbicidal activity VERPE,Veronica persica (VERPE); 15 g/Ha,60
same,Herbicidal activity VERPE,Veronica persica (VERPE); 30 g/Ha,80
same,Herbicidal activity VERPE,Veronica persica (VERPE); 60 g/Ha,90
same,Herbicidal activity VERPE,Veronica persica (VERPE); 125 g/Ha,80
same,Herbicidal activity VERPE,Veronica persica (VERPE); 250 g/Ha,100
same,Herbicidal activity VERPE,Veronica persica (VERPE); 500 g/Ha,100
same,Herbicidal activity XANST,[6]; 60 g/Ha,90
same,Herbicidal activity XANST,[6]; 125 g/Ha,90
same,Herbicidal activity XANST,[6]; 250 g/Ha,90
same,Herbicidal activity XANST,[6]; 500 g/Ha,100
same,Herbicidal activity ZEAMX,Zea mays (ZEAMX); 15 g/Ha,0
same,"Herbicidal activity on a 0-100 scale, ZEAMX",Zea mays (ZEAMX); 15 g/Ha,0
same,Herbicidal activity ZEAMX,Zea mays (ZEAMX); 30 g/Ha,10
same,"Herbicidal activity on a 0-100 scale, ZEAMX",Zea mays (ZEAMX); 30 g/Ha,10
same,Herbicidal activity ZEAMX,Zea mays (ZEAMX); 60 g/Ha,50
same,"Herbicidal activity on a 0-100 scale, ZEAMX",Zea mays (ZEAMX); 60 g/Ha,50
same,Herbicidal activity ZEAMX,Zea mays (ZEAMX); 125 g/Ha,50
same,"Herbicidal activity on a 0-100 scale, ZEAMX",Zea mays (ZEAMX); 125 g/Ha,50
same,Herbicidal activity ZEAMX,Zea mays (ZEAMX); 250 g/Ha,70
same,"Herbicidal activity on a 0-100 scale, ZEAMX",Zea mays (ZEAMX); 250 g/Ha,70
same,Herbicidal activity ZEAMX,Zea mays (ZEAMX); 500 g/Ha,100
same,"Herbicidal activity on a 0-100 scale, ZEAMX",Zea mays (ZEAMX); 500 g/Ha,100
